“And” between values parts separate entries of the source, which are not always exact repeats. Identical values can stand only once.
Experiments:
[1] = LogP measurement in solutions; format: physicochemical; settings: octanol / octanol-saturated water
From the text: incompatibility between particles i and j. Considering the relative position and chemical components of all the beads, we always keep aAB = aAC = 28, aAS = aCS = 25, and aBS = 35. The concentration of ABC or AB is fixed at 0.03. We performed the dynamics of total 81 000 DPD beads in a cubic box (303) under the periodic boundary conditions.
In these conditions, we carry out 1.0 × 106 steps for each simulation.
Molecular simulation using the Materials Studio program. For each molecule, the most favourable crystal packing was predicted using the Polymorph module as implemented in Materials Studio. The crystal structure prediction protocol includes three parts, Packing, Geometry Optimization and Clustering. […]
Evaluation of the dephosphorylated efficacy of P-CyPt towards ALP. […] The resulting fluorescence intensities in each well in the first 30 minutes were recorded on a Spark™ 10M Multimode Microplate Reader (λex/em = 680/710 nm), and every two-minute intervals record one point. The amount of CyPt at each time point was determined by a standard curve under the same […]
LogP measurement in solutions. […] The UV-vis absorption spectroscopy or fluorescence spectrum was recorded after being diluted in MeOH/H2O (1:1) system (<1% octanol). The logP value was calculated by dividing the amount in the octanol layer to […]

[2] = Urine and faeces analysis by HPLC (mCy-containing compounds); format: in vivo; settings: Time period 8-12 h; individual mice
[3] = test system: orthotopic HepG2/Luc liver tumors; assay: Chemotherapy of orthotopic liver tumors (BL imaging, ex vivo BL and FL imaging);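 for tumor BL intensity of liver: bioluminescence quantified by ROI over liver region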; format: in vivo, mice; settings: for tumor BL over the course of treatment: 2.25 mg kg^−1 Pt i.v. on day 0, 3, 6, 9, 12; for tumor BL intensity of liver: day 15; for Normalized FL intensity of mCy (ex vivo liver tumor, Fig. 5h): day 15, livers sprayed with P-CyPt 10 μM, normalized to PBS group; for Normalized BL intensity (ex vivo liver tumor, Fig. 5h): day 15, normalized to PBS group
Protocol: During the treatment, the body weights of mice were also measured every three days. On day 15, all mice were sacrificed, the whole liver were excised and photographed. Then, P-CyPt (10 μM) and D-luciferin (5 mM) were sprayed on the surface of each liver to performed ex vivo BL and NIR FL imaging. The BL images were acquired at 10 min using the BL imaging mode (Open), and the NIR FL images were acquired at 30 min, using a 660 nm excitation filter and a 750 ± 50 nm emission filter. The average BL and FL intensities were quantified by the ROIs measurement in the tumor region of liver using the Living Image Software (4.5.2, PerkinElmer, MA, U.S.A). Each experiment was conducted in four mice.

[4] = Body weight of mice with orthotopic HepG2/Luc liver tumors; format: in vivo; settings: mean of 3, in g (unit assumed)

Row | Structure (SMILES) | LogP value [1] | Compound found in excreta (%), Supplementary Table S5 [2] | Compound found in excreta (%), Supplementary Table S6 [2] | tumor BL over the course of treatment [3] | tumor BL intensity of liver [3] | metastatic tumor foci in the livers ([3]; day 15, ex vivo BL imaging) | Normalized FL intensity of mCy (ex vivo liver tumor, Fig. 5h) [3] | Normalized BL intensity (ex vivo liver tumor, Fig. 5h) [3] | Body weight of mice (Supplementary Fig. 34) ([4]; time 0 d) | Body weight of mice (Supplementary Fig. 34) ([4]; time 3 d) | Body weight of mice (Supplementary Fig. 34) ([4]; time 6 d) | Body weight of mice (Supplementary Fig. 34) ([4]; time 9 d) | Body weight of mice (Supplementary Fig. 34) ([4]; time 12 d) | Body weight of mice (Supplementary Fig. 34) ([4]; time 15 d) | Compound found in excreta (%), Supplementary Table S7 [2]
1 | CC1(C)C(/C=C/C2=C3Oc4cc(OP(=O)(O)O)c(Cl)cc4C=C3CCC2)=[N+](CCCNC(=O)[C@@H](Cc2ccccc2)NC(=O)[C@@H](Cc2ccccc2)NC(=O)CCC(=O)[O][Pt]([NH2])([NH2])([OH])([Cl])[Cl])c2ccccc21 [P-CyPt] | 0.68 ± 0.03 | 1.424% and 1.642% and 1.178% | 0.04756% and 0.06874% and 0.05951% | did not obviously increase | 9376.5 | No metastatic tumor foci | 0.23 | 0.22 | 19.4 | 19.7033 | 19.4233 | 19.8233 | 20.0233 | 19.9233 | –
2 | CC1(C)C(/C=C/C2=C3Oc4cc(O)c(Cl)cc4C=C3CCC2)=[N+](CCCNC(=O)[C@@H](Cc2ccccc2)NC(=O)[C@@H](Cc2ccccc2)NC(=O)CCC(=O)[O][Pt]([NH2])([NH2])([OH])([Cl])[Cl])c2ccccc21 [CyPt] | 2.50 ± 0.03 | 0% | 0.6127% and 0.8857% and 0.7667% | – | – | – | – | – | – | – | – | – | – | – | 0.79% and 1.63% and 1.075%
3 | [NH2][Pt]([NH2])([Cl])[Cl] [CDDP, cisplatin] | – | – | – | markedly increased | 861747.5 | – | 0.90 | 0.87 | 20.65 | 20.2 | 19.4233 | 18.65 | 17.8733 | 17.5 | –
